{
  "source": "PubChem BioAssay (NCI)",
  "experiment_in_all_cases": "inhibition of tumour cell growth, NCI panel, 48 h",
  "key": {"NCI/ADR-RES ovarian": {"test_system": "NCI/ADR-RES ovarian"}, "HOP-92 NSCLC": {"test_system": "HOP-92 NSCLC"}, "A549 NSCLC": {"test_system": "A549 NSCLC"}, "NCI-H226 lung": {"test_system": "NCI-H226 lung"}, "PC-3 prostate": {"test_system": "PC-3 prostate"}, "NCI-H522 lung": {"test_system": "NCI-H522 lung"}, "HL-60(TB) leukemia": {"test_system": "HL-60(TB) leukemia"}, "786-0 renal": {"test_system": "786-0 renal"}, "OVCAR-5 ovarian": {"test_system": "OVCAR-5 ovarian"}, "UACC-62 melanoma": {"test_system": "UACC-62 melanoma"}, "SN12C renal": {"test_system": "SN12C renal"}, "SK-MEL-2 melanoma": {"test_system": "SK-MEL-2 melanoma"}, "TK-10 renal": {"test_system": "TK-10 renal"}, "NCI-H23 lung": {"test_system": "NCI-H23 lung"}, "NCI-H460 lung": {"test_system": "NCI-H460 lung"}, "UO-31 renal": {"test_system": "UO-31 renal"}, "A498 renal": {"test_system": "A498 renal"}, "MDA-MB-231 breast": {"test_system": "MDA-MB-231 breast"}, "CAKI-1 renal": {"test_system": "CAKI-1 renal"}, "M14 melanoma": {"test_system": "M14 melanoma"}, "RPMI-8226 leukemia": {"test_system": "RPMI-8226 leukemia"}, "SR leukemia": {"test_system": "SR leukemia"}, "HCT-15 colon": {"test_system": "HCT-15 colon"}, "U251 CNS": {"test_system": "U251 CNS"}, "OVCAR-8 ovarian": {"test_system": "OVCAR-8 ovarian"}, "SF-539 CNS": {"test_system": "SF-539 CNS"}, "COLO 205 colon": {"test_system": "COLO 205 colon"}, "HT29 colon": {"test_system": "HT29 colon"}, "RXF 393 renal": {"test_system": "RXF 393 renal"}, "SNB-19 CNS": {"test_system": "SNB-19 CNS"}, "OVCAR-4 ovarian": {"test_system": "OVCAR-4 ovarian"}, "LOX IMVI melanoma": {"test_system": "LOX IMVI melanoma"}, "MDA-MB-435": {"test_system": "MDA-MB-435"}, "K-562 leukemia": {"test_system": "K-562 leukemia"}, "IGROV1 ovarian": {"test_system": "IGROV1 ovarian"}, "UACC-257 melanoma": {"test_system": "UACC-257 melanoma"}, "SK-MEL-5 melanoma": {"test_system": "SK-MEL-5 melanoma"}, "ACHN renal": {"test_system": "ACHN renal"}, "SF-295 CNS": {"test_system": "SF-295 CNS"}, "HCT-116 colon": {"test_system": "HCT-116 colon"}, "CCRF-CEM leukemia": {"test_system": "CCRF-CEM leukemia"}, "MDA-N": {"test_system": "MDA-N"}, "MCF7 breast": {"test_system": "MCF7 breast"}, "SK-MEL-28 melanoma": {"test_system": "SK-MEL-28 melanoma"}, "EKVX NSCLC": {"test_system": "EKVX NSCLC"}, "OVCAR-3 ovarian": {"test_system": "OVCAR-3 ovarian"}, "SW-620 colon": {"test_system": "SW-620 colon"}, "DU-145 prostate": {"test_system": "DU-145 prostate"}, "MOLT-4 leukemia": {"test_system": "MOLT-4 leukemia"}},
  "note": "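Step 1: Grow cells in 96-well plates. Step 2: Expose to compound for 48 hours at 5 concentrations. Step 3: Interpolate endpoints linearly; if unreached, use highest concentration. TGI is the concentration that stops growth completely.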",
  "data": [
    {"smiles": "C[C@]12CCC(N3CCCC3)CC1=CC[C@@H]1[C@@H]2CC[C@]2(C)C(O)[C@H](n3ccnc3)C[C@@H]12", "note": "(some centres undefined)", "values": [
      {"measurement": "TGI", "setting": "NCI/ADR-RES ovarian", "value": "> 100", "unit": "µM"},
      {"measurement": "TGI", "setting": "HOP-92 NSCLC", "value": "> 100", "unit": "µM"},
      {"measurement": "TGI", "setting": "A549 NSCLC", "value": "> 100", "unit": "µM"},
      {"measurement": "TGI", "setting": "NCI-H226 lung", "value": "> 100", "unit": "µM"},
      {"measurement": "TGI", "setting": "PC-3 prostate", "value": "> 100", "unit": "µM"},
      {"measurement": "TGI", "setting": "NCI-H522 lung", "value": "> 100", "unit": "µM"},
      {"measurement": "TGI", "setting": "HL-60(TB) leukemia", "value": 36.1, "unit": "µM"},
      {"measurement": "TGI", "setting": "786-0 renal", "value": "> 100", "unit": "µM"},
      {"measurement": "TGI", "setting": "OVCAR-5 ovarian", "value": "> 100", "unit": "µM"},
      {"measurement": "TGI", "setting": "UACC-62 melanoma", "value": "> 100", "unit": "µM"},
      {"measurement": "TGI", "setting": "SN12C renal", "value": "> 100", "unit": "µM"},
      {"measurement": "TGI", "setting": "SK-MEL-2 melanoma", "value": "> 100", "unit": "µM"},
      {"measurement": "TGI", "setting": "TK-10 renal", "value": "> 100", "unit": "µM"},
      {"measurement": "TGI", "setting": "NCI-H23 lung", "value": "> 100", "unit": "µM"},
      {"measurement": "TGI", "setting": "NCI-H460 lung", "value": "> 100", "unit": "µM"},
      {"measurement": "TGI", "setting": "UO-31 renal", "value": "> 100", "unit": "µM"},
      {"measurement": "TGI", "setting": "A498 renal", "value": "> 100", "unit": "µM"},
      {"measurement": "TGI", "setting": "MDA-MB-231 breast", "value": "> 100", "unit": "µM"},
      {"measurement": "TGI", "setting": "CAKI-1 renal", "value": "> 100", "unit": "µM"},
      {"measurement": "TGI", "setting": "M14 melanoma", "value": 34.4, "unit": "µM"},
      {"measurement": "TGI", "setting": "RPMI-8226 leukemia", "value": "> 100", "unit": "µM"},
      {"measurement": "TGI", "setting": "SR leukemia", "value": 43.9, "unit": "µM"},
      {"measurement": "TGI", "setting": "HCT-15 colon", "value": "> 100", "unit": "µM"},
      {"measurement": "TGI", "setting": "U251 CNS", "value": "> 100", "unit": "µM"},
      {"measurement": "TGI", "setting": "OVCAR-8 ovarian", "value": "> 100", "unit": "µM"},
      {"measurement": "TGI", "setting": "SF-539 CNS", "value": 46.5, "unit": "µM"},
      {"measurement": "TGI", "setting": "COLO 205 colon", "value": "> 100", "unit": "µM"},
      {"measurement": "TGI", "setting": "HT29 colon", "value": "> 100", "unit": "µM"},
      {"measurement": "TGI", "setting": "RXF 393 renal", "value": 72.8, "unit": "µM"},
      {"measurement": "TGI", "setting": "SNB-19 CNS", "value": "> 100", "unit": "µM"},
      {"measurement": "TGI", "setting": "OVCAR-4 ovarian", "value": "> 100", "unit": "µM"},
      {"measurement": "TGI", "setting": "LOX IMVI melanoma", "value": "> 100", "unit": "µM"},
      {"measurement": "TGI", "setting": "MDA-MB-435", "value": "> 100", "unit": "µM"},
      {"measurement": "TGI", "setting": "K-562 leukemia", "value": "> 100", "unit": "µM"},
      {"measurement": "TGI", "setting": "IGROV1 ovarian", "value": "> 100", "unit": "µM"},
      {"measurement": "TGI", "setting": "UACC-257 melanoma", "value": "> 100", "unit": "µM"},
      {"measurement": "TGI", "setting": "SK-MEL-5 melanoma", "value": "> 100", "unit": "µM"},
      {"measurement": "TGI", "setting": "ACHN renal", "value": "> 100", "unit": "µM"},
      {"measurement": "TGI", "setting": "SF-295 CNS", "value": "> 100", "unit": "µM"},
      {"measurement": "TGI", "setting": "HCT-116 colon", "value": "> 100", "unit": "µM"},
      {"measurement": "TGI", "setting": "CCRF-CEM leukemia", "value": "> 100", "unit": "µM"},
      {"measurement": "TGI", "setting": "MDA-N", "value": "> 100", "unit": "µM"},
      {"measurement": "TGI", "setting": "MCF7 breast", "value": "> 100", "unit": "µM"},
      {"measurement": "TGI", "setting": "SK-MEL-28 melanoma", "value": 68.5, "unit": "µM"},
      {"measurement": "TGI", "setting": "EKVX NSCLC", "value": "> 100", "unit": "µM"},
      {"measurement": "TGI", "setting": "OVCAR-3 ovarian", "value": "> 100", "unit": "µM"},
      {"measurement": "TGI", "setting": "SW-620 colon", "value": "> 100", "unit": "µM"},
      {"measurement": "TGI", "setting": "DU-145 prostate", "value": "> 100", "unit": "µM"},
      {"measurement": "TGI", "setting": "MOLT-4 leukemia", "value": 83.6, "unit": "µM"}
    ]}
  ]
}
